Key:
[1] = test system: cytochrome p450 (CYP) IAI gene; experiment: MC RT-PCR with Celi competitive templates: induction of CYPIAI gene expression in β-napthoflavone-exposed BEP2D cells; assay type: cell-based, human; details: β-napthoflavone 10 μM, control 0.1% DMSO, cDNA loading matched by GAPDH native/competitive template bands
Method: (§1) In a second set of experiments, multiplex competitive reverse transcriptase polymerase chain reaction (MC RT-PCR) with competitive templates were prepared by the Celi method to evaluate the cytochrome p450 (CYP) IAI gene in β-napthoflavone-exposed BEP2D cells. The induction of CYPIAI gene expression was evaluated using both MC RT-PCR with Celi competitive templates, and Northern analysis. Competitive templates were prepared for both the CYPIAI and GAPDH genes. The primers used to prepare the competitive template for GAPDH were: […]
The PCR amplification conditions were the same as described for experiments using the competitive templates prepared for GAPDH and GSHPx by the Higuchi method except the annealing temperature was 55 degrees centigrade and the amplification was carried out for 38 cycles.
Because the native and competitive templates separate without prior restriction endonuclease digestion, samples were taken directly from the PCR reaction tube and applied to ethidium bromide stained 3% Nusieve, 1% LE agarose gels. It was then possible to quantify the products by taking a negative photograph of the gel using Polaroid 665 positive/negative instant film, subjecting the negative photograph to densitometry. […]

[2] = test system: cytochrome p450 (CYP) IAI gene; experiment: Northern analysis of CYPIAI gene expression in β-napthoflavone-exposed BEP2D cells; assay type: cell-based, human; details: β-napthoflavone 10 μM vs 0.1% DMSO control, 32P-labeled CYPIAI cDNA probe
Method: as §1
RNA from BEP2D cells incubated for varying times with β-napthoflavone (10 μM) was either electrophoresed on a 1% LE formaldehyde denaturing gel for Northern analysis or MC RT-PCR amplified, as described above. For Northern analysis, following transfer of the RNA to GeneScreen, the filters were hybridized with ^32P-labeled CYPIAI cDNA.
FIG. 36A illustrates Northern analysis of RNA obtained from BEP2D cells that were treated with 0.1% DMSO as a control, or, β-napthoflavone in an effort to induce cytochrome p450 IA1 (CYPIA1). FIG. 36B illustrates DNA PCR-amplified from serial dilutions of cDNA from the same cells used in FIG. 36SA. The cDNA was co-amplified in the presence of competitive templates for GAPDH and CYPIAI, according to some embodiments of the instant invention.

- band representing the native CYPIAI gene, exposed cells compared to control cells [1]: much more strongly represented
- gene expression of the CYPIAI gene [2]: increase
SMILES: O=c1cc(-c2ccccc2)oc2ccc3ccccc3c12 [β-napthoflavone]

From patent publication US20060190192A1, “Databases for assessing nucleic acids” (Medical College of Ohio, priority 2005, published 2006)
